Source: patent publication US11911178B2, “System and method to detect and treat arrhythmogenic regions in atrial fibrillation” (Northwestern University, priority 2020, dated 2024)

Tested on: atrial fibrillation
Test: open chest epicardial electrogram mapping of atrial fibrillation in animals at baseline and after ROS scavenger (NAC) administration
Type: in vivo
Description: In an illustrative embodiment, the proposed method and system involve use of an electrogram to monitor a patient's heart characteristics. An electrode recording system can be used to receive and store baseline electrogram signals from the heart of the patient during sinus rhythm. As discussed in more detail below, mapping is performed based on the received electrogram signals to generate high resolution maps in multiple atrial regions of the patient. A reactive oxygen species scavenger (e.g., NAC) is then administered to the patient. The electrogram is used to measure various characteristics of the heart after administration of the ROS scavenger. These characteristics can include dominant frequency (DF), cycle length (CL), organization index (OI), fractionation index (FI), recurrence morphology percentage (Rec %), Shannon's entropy (ShEn), conduction velocity, and voltage. The monitored characteristics can also include the number and stability of rotational, focal, and wavelet activities in different atrial regions of the heart. The various atrial regions of the heart can include posterior left atrium (PLA), left atrial free wall (LAFW), left atrial appendage (LAA), posterior right atrium (PRA), right atrial free wall (RAFW), right atrial appendage (RAA), etc. In alternative embodiments, different heart regions may be used.
In an illustrative embodiment, the proposed system uses a computing system to perform calculation of percentage changes of AF characteristics at each electrogram electrode location at different time intervals subsequent to administration of the ROS scavenger. The percentage changes are based on the baseline readings from the electrogram (i.e., the readings received prior to administration of the ROS scavenger). For example, the calculations of percentage changes can be after 30 minutes, 1 hour, and 2 hours in one embodiment. Alternatively, different or additional times may be used, such as 45 minutes, 1.5 hours, 3 hours, 4 hours, etc. In some implementations, rebolus of the ROS scavenger administration may be performed in between the time periods.
Referring to FIG. 2B, a baseline measurement for each of a plurality of characteristics is obtained using the electrogram system in an operation 230. The baseline measurements are measured prior to administration of the ROS scavenger in an operation 235, and mapping of the various characteristics is performed based on the measured characteristics in an operation 240. Any of the characteristics described herein can be used. The system continues conducting measurements using the electrogram at various periods of time subsequent to administration of the ROS scavenger, such as 30 minutes, 1 hour, 2 hours, etc. The system also calculates the percentage change for each of the measured characteristics at each of the periods of time, as compared to the baseline measurements in an operation 245. Hotspots are identified for each measured characteristic based on the percentage changes in the operation 245. In one embodiment, the determined percentage changes are compared to a percentage change threshold to determine whether a given area is a hotspot. The percentage change threshold can be 5%, 8%, 10%, 20%, etc. depending on the implementation. Alternatively, instead of basing the determination on the percentage change, the determination of whether an area is a hotspot can be based on the amount of absolute change in the measured characteristic, and can vary for each characteristic. Based on the identified hotspots, the system also calculates the percentage of overlap among the various hotspots from each of the characteristics in an operation 250. The system maps the overlapping hotspots (based on the percentage of overlap) so that they can be visualized in an operation 255, and the overlapping hotspots are then targeted for treatment.
Experiments were conducted on animals using the techniques described herein. […]

SMILES: CC(=O)N[C@@H](CS)C(=O)O [NAC, N-acetylcysteine]
- mapping field showing hotspot overlap in >50% of the EGM measures (Animal 1, LAFW, 1 hour after administration): 36%
- mapping field showing hotspot overlap in >50% of the EGM measures (Animal 1, LAFW, 2 hours after administration): 13%
- mapping field showing hotspot overlap in >50% of the EGM measures (Animal 8, LAFW, 1 hour after administration): 15%
- mapping field showing hotspot overlap in >50% of the EGM measures (Animal 8, LAFW, (2) hours after administration): 48%
- DF peak (LAFW and PLA, 1 hour after NAC, baseline peak 11.5 Hz, histogram of all 10 hearts): 9 Hz
- DF peak (LAFW and PLA, 2 hours after NAC, baseline peak 11.5 Hz, histogram of all 10 hearts): 7.5 Hz
- stability of observed 360 degree rotations in activation maps (LAFW, after NAC administration): significantly decreased
- DF peak (RAA, after 1 hr NAC, baseline peak 8.5 Hz): 7.5 Hz
- rotational source (after NAC administration): reduced
- mapping field with overlap in more than 50% of the electrogram measurements (percentage change threshold 5%, Animal 1, 1 hour after administration): 19%
- mapping field with overlap in more than 50% of the electrogram measurements (percentage change threshold 5%, Animal 1, 2 hours after administration): 27%
- mapping field with overlap in more than 50% of the electrogram measurements (percentage change threshold 5%, Animal 8, 1 hour after administration): 17%
- mapping field with overlap in more than 50% of the electrogram measurements (percentage change threshold 5%, Animal 8, 2 hours after administration): 47%
- mapping field with overlap in more than 50% of the electrogram measurements (percentage change threshold 20%, Animal 1, after 1 hour): 2%
- mapping field with overlap in more than 50% of the electrogram measurements (percentage change threshold 20%, Animal 1, after 2 hours): 7%
- mapping field with overlap in more than 50% of the electrogram measurements (percentage change threshold 20%, Animal 8, after 1 hour): 6%
- mapping field with overlap in more than 50% of the electrogram measurements (percentage change threshold 20%, Animal 8, after 2 hours): 29%
